Measurements as given in patent publication US20260217662A1, “PROCESSES FOR PREPARING TRIAZOLE GLYCOLATE OXIDASE INHIBITORS” (CANTERO THERAPEUTICS, INC., priority 2020, published 2026).

Target: T1, human glycolate oxidase (hGO) (Homo sapiens, UniProt Q9UJM8)
T1 construct: His-tag (6 histidines) (N); made in house; host or cells: E. coli BL21 (DE3)
T1 sequence (Q9UJM8 1-370): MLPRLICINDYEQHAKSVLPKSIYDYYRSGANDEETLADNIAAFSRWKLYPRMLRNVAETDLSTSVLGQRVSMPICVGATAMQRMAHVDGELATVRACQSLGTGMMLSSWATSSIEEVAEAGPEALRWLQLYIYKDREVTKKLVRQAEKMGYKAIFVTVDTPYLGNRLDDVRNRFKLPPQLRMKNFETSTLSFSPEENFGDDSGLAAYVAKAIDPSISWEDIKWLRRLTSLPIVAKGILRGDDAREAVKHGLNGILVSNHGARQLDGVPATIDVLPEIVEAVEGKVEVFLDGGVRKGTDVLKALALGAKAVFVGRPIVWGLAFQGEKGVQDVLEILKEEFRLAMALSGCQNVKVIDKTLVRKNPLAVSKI
Assay: In vitro inhibition of human glycolate oxidase (enzymatic assay, coupled HRP/Trinder reaction)
Assay type: biochemical
Conditions: recombinant hGO, 40 mM glycolic acid, pH 7, activity at 1 minute, read at 515 nm
From the text: The catalytic reactions used for assaying glycolate oxidase activity in the presence of compounds according to the present disclosure are outlined in FIG. 9. Glycolate oxidase (GO)-catalyzed conversion of glycolate to glyoxylate (top reaction), with the concomitant reduction of the cofactor flavin mononucleotide (FMN), uses molecular oxygen (O2) for recovering its oxidative state, releasing hydrogen peroxide (H2O2). The Trinder reaction (bottom reaction), in which horseradish peroxidase (HRP) uses hydrogen peroxide, 4-aminoantipyrine and a phenol derivative (sulphonated DCIP) to generate a quinoneimine dye that is spectrophotometrically measured.
Human glycolate oxidase (hGO) expression: BL21 (DE3) E. coli transformed with recombinant pET-15b expression vector with the N-terminal His-tag human Hao1 cDNA was grown in LB medium in the presence of 0.1 mg/ml ampicillin. […] Protein were quantified by the bicinchoninic acid (BCA) assay.
Enzymatic assays: Enzymatic activity of hGO was determined in the presence of glycolate as substrate (40 mM glycolic acid) and phosphate buffer (50 mM KPO4, 0.1 mM EDTA, pH 7). The production of glyoxylate was indirectly measured by the quantification of hydrogen peroxide formed during the first oxidation reaction. […] Enzymatic activity was calculated at 1 minute after initiation of the Trinder reaction.

Compound	IC50
O=C(O)c1nn[nH]c1Oc1ccc(-c2ccc(C3CCC(F)(F)C3)cc2)cc1 (centres unmarked) [Ib-1, 5-((4′-(3,3-difluorocyclopentyl)-[1,1′-biphenyl]-4-yl)oxy)-1H-1,2,3-triazole-4-carboxylic acid]	< 0.1 µM
O=C(O)c1nn[nH]c1Oc1ccc(-c2ccc(C3CCC(F)(F)CC3)cc2)cc1 [Ic-1, 5-((4′-(4,4-difluorocyclohexyl)-[1,1′-biphenyl]-4-yl)oxy)-1H-1,2,3-triazole-4-carboxylic acid]	< 0.1 µM
